Experimental findings from patent US20240351996A1, “CDK19-SELECTIVE INHIBITORS, AND METHODS OF USE THEREOF” (CZ BIOHUB SF, LLC, priority 2022, published 2024) are described below.

In assay [1] the target is CDK19/CycC (Homo sapiens, UniProt Q9BWU1). Description: LanthaScreen europium kinase binding assay (FRET displacement), CDK19. The note with it: for CDK19 Selectivity: CDK19/CDK8 selectivity based on IC50 values; for IC50: his-tagged CDK19/CycC 5 nM, tracer 10 nM, 3 h incubation. As to the method:
(§1) FRET Displacement Assay to Measure IC50: The CDK19/CDK8 IC50 values were measured to evaluate activity and to determine CDK19/CDK8 selectivity. The IC50 values of the disclosed compounds was measured using a LanthaScreen™ europium kinase binding assay (ThermoFisher), as described herein.
To a kinase buffer cocktail solution (i.e., 5× Kinase Buffer A) was added: purified recombinant his-tagged CDK19/CycC protein (5 nM), ATP-competitive kinase inhibitor scaffold kinase tracer Alexa Fluor® 665 (10 nM), biotin anti-his tag antibody (2 nM), LanthaScreen® europium-streptavidin (2 nM). An aliquot of the cocktail solution (10 μL) was added to each well of a LUMITRAC™ 200:384 flat bottom, non-treated microtiter white plate. The plate was then covered to protect light sensitive reagents and incubated for 30 min at room temperature to equilibrate before addition of any inhibitors.
(§2) A serial dilution of the compounds was titrated into each well using an automated liquid handling Staccato integrated system at the following concentration(s) (Log10 Molar [C]): −4.5, −5.0, −5.5, −6.0, −6.5, −7.0, −7.5, −8.0 so that a complete dose-response could be calculated. A Tecan microplate reader infinite m200 instrument was then used to measure the FRET signal of each individual well using an excitation of 317/20 nm, emission europium of 620/12 nm, and emission kinase tracer of 665/12 nm after a 3 h incubation period at room temperature until steady-state kinetics were achieved.
(§3) Results were performed in duplicate and were repeated a total of 3 independent times before data was normalized to the DMSO control group and IC50 values reported.
In general terms: TR-FRET usually uses a lanthanide donor and a delayed reading to cut background.

In assay [2] the target is CDK8 (Homo sapiens, UniProt P49336). Kind of assay: LanthaScreen europium kinase binding assay (FRET displacement), CDK8. As to the method: as §1
Chain of CDK8 (P49336 whole entry): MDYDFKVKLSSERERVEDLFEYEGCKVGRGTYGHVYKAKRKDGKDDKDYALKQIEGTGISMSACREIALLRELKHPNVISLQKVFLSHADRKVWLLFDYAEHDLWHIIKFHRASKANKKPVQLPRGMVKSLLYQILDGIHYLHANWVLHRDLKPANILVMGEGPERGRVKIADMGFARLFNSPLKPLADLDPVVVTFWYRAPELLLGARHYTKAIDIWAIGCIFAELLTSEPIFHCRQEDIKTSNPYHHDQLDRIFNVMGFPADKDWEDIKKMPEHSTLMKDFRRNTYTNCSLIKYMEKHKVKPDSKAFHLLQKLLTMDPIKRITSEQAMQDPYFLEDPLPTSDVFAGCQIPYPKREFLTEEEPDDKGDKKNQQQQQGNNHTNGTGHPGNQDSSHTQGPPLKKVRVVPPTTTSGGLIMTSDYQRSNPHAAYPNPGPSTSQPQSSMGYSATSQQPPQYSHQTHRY
Chain of CDK8 (P24863 whole entry partner): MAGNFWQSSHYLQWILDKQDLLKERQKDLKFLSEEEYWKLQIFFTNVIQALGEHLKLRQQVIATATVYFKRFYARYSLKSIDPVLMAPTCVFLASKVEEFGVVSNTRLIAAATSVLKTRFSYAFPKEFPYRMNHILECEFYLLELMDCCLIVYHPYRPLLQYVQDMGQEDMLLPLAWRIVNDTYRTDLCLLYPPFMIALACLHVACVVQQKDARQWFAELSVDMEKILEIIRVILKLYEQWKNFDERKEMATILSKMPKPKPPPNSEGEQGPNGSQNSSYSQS
[…] An aliquot of the cocktail solution (10 μL) was added to each well of a LUMITRAC™ 200:384 flat bottom, non-treated microtiter white plate. The plate was then covered to protect light sensitive reagents and incubated for 30 min at room temperature to equilibrate before addition of any inhibitors.
as §2, §3

Chain of CDK19/CycC (Q9BWU1 whole entry): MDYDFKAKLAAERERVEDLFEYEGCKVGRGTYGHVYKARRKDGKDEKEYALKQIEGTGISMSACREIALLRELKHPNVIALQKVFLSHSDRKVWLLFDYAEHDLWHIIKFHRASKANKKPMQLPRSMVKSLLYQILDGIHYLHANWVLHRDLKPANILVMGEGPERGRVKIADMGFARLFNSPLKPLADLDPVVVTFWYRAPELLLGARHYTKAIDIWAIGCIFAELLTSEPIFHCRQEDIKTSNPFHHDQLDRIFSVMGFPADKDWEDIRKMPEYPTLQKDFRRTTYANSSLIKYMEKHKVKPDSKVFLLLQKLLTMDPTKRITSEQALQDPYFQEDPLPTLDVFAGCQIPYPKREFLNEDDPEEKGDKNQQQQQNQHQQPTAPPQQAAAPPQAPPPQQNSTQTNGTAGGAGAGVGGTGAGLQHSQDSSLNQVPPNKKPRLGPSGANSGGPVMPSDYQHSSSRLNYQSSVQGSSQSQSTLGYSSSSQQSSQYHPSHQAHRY
Chain of CDK19/CycC (P24863 whole entry partner): as the sequence (P24863 whole entry partner) above

Usually IC50 stands for the concentration needed to halve the response being measured. A higher IC50 goes with weaker potency. Take `CC(C)Cc1ccc(Nc2ncc(C(=O)Nc3ccncc3)cn2)cc1` [Compound A49, 2-((4-isobutylphenyl)amino)-N-(pyridin-4-yl)pyrimidine-5-carboxamide]: in assay [1], the “CDK19 Selectivity” value was 3.9 and the IC50 worked out at 2490 nM. This compound also displayed an IC50 in assay [2] of 9360 nM.
With `COc1cnccc1Nc1cnc(Nc2ccc(CC(C)C)cc2)nc1` [Compound A50], in assay [1], the “CDK19 Selectivity” value is reported as not below 6 and the IC50 was not above 2.5 nM. In assay [2], the half-maximal inhibitory concentration (IC50) is 16 nM.
On the same counts, the results for `CCc1cnccc1Nc1cnc(Nc2ccc(CC(C)C)cc2)nc1` [Compound A51] are not below 15, not above 2.5 nM and 38 nM.
On the same counts, the results for `CC(C)Cc1ccc(Nc2ncc(Nc3cccnc3)cn2)cc1` [Compound A52, N2-(4-isobutylphenyl)-N5-(pyridin-3-yl)pyrimidine-2,5-diamine] are 5, 704 nM and 3550 nM.
The corresponding values for `CC(C)Cc1ccc(Nc2ncc(Nc3ccncc3OC3CCCCC3)cn2)cc1` [Compound A54] are 0.8, 45 nM and 35 nM.
On to `CC(C)Cc1ccc(Nc2ncc(Nc3ccncc3OC3CCCNC3)cn2)cc1` (stereo not drawn) [Compound A55], for which the “CDK19 Selectivity” value in assay [1] is listed as 1.1. Moreover, the IC50 in assay [1] worked out at 40 nM; in assay [2] it was 44 nM.
As for `CC(C)Cc1ccc(Nc2ncc(Nc3ccncc3F)cn2)cc1` [Compound A56], in assay [1], the “CDK19 Selectivity” value is not below 11 and the IC50 was not above 2.5 nM. The same compound gave an IC50 in assay [2] of 27 nM.
On the same counts, the results for `CC(C)Cc1ccc(Nc2ncc(Nc3ccncc3Cl)cn2)cc1` [Compound A57] are 2, not above 2.5 nM and 3 nM.
Take `CC(C)Cc1ccc(Nc2ncc(Nc3ccncc3Cl)cn2)c(F)c1` [Compound A58]: the “CDK19 Selectivity” value in assay [1] is on record as 2. The figures for the half-inhibitory concentration (IC50) in assay [1] and in assay [2] were not above 2.5 nM and 2.8 nM, respectively.
On the same counts, the results for `Cc1cnccc1Nc1cnc(Nc2ccc(CC(C)C)cc2F)nc1` [Compound A59] are 2, 11 nM and 23 nM.
The corresponding values for `COc1cnccc1Nc1cnc(Nc2ccc(CC(C)C)cc2F)nc1` [Compound A61] are 1, 7.6 nM and 7 nM.
`Cc1cncc(F)c1Nc1cnc(Nc2ccc(CC(C)C)cc2)nc1` [Compound A62]: in assay [1], the “CDK19 Selectivity” value was found to be 1.5 and the IC50 is not above 2.5 nM. In assay [2], this compound had an IC50 of 3 nM.
In the case of `CC(C)Cc1ccc(Nc2ncc(Nc3cncnc3)cn2)cc1` [Compound A63], in assay [1], the “CDK19 Selectivity” value is 4.8 and the IC50 came out at 1600 nM. The IC50 in assay [2] amounted to 7790 nM.
In the case of `CCc1cnc(C)cc1Nc1cnc(Nc2ccc(CC(C)C)cc2)nc1` [Compound A64], in assay [1], the “CDK19 Selectivity” value worked out at 2.3 and the IC50 amounted to 389 nM. The compound also returned a half-inhibitory concentration (IC50) in assay [2] of 905 nM.
Regarding `Cc1cc(Nc2cnc(Nc3ccc(CC(C)C)cc3)nc2)c(C)cn1` [Compound A65], in assay [1], the “CDK19 Selectivity” value stood at 2 and the IC50 amounted to 1160 nM. This compound displayed an IC50 in assay [2] of 2270 nM.
`Cc1cncc(C)c1Nc1cnc(Nc2ccc(CC(C)C)cc2)nc1` [Compound A66]: in assay [1], the “CDK19 Selectivity” value is on record as 1.2 and the IC50 was determined as 4.6 nM. In assay [2], this compound had an IC50 of 5.8 nM.
Turning to `FC(F)C(F)(F)Oc1ccc(Nc2ncc(Nc3ccncc3OC3CCCC3)cn2)cc1` [Compound A67], in assay [1], the “CDK19 Selectivity” value amounted to 1. The IC50 in assay [1] and in assay [2] was 106 nM each time.
Take `CCc1cnccc1Nc1cnc(Nc2ccc(C3CCCCC3)cc2)nc1` [Compound A68]: the “CDK19 Selectivity” value in assay [1] turned out to be 1. The IC50 in assay [1] and in assay [2] was 12 nM throughout.
In the case of `O=C(c1ccncc1)c1cnc(Nc2ccc(F)cc2)nc1` [Compound A69], the “CDK19 Selectivity” value in assay [1] came to 1.9. The IC50 in assay [1] is 1410 nM; in assay [2], 2670 nM.
The corresponding values for `CC(C)Cc1ccc(Nc2ncc(C(=O)c3ccncc3)cn2)cc1` [Compound A70] are not below 18, not above 2.5 nM and 46 nM.
The corresponding values for `Cc1cc(C(=O)c2cnc(Nc3ccc(CC(C)C)cc3)nc2)ccn1` [Compound A71] are 3, not above 2.5 nM and 6 nM.
The corresponding values for `CC(C)Cc1ccc(Nc2ncc(C(=O)c3ccncc3C3CC3)cn2)cc1` [Compound A72] are not below 14, not above 2.5 nM and 34 nM.
`Cc1cnccc1C(=O)c1cnc(Nc2ccc(CC(C)C)cc2)nc1` [Compound A73, (2-((4-isobutylphenyl)amino)pyrimidin-5-yl) (3-methylpyridin-4-yl) methanone]: in assay [1], the “CDK19 Selectivity” value was not below 6 and the IC50 was not above 2.5 nM. The compound also came in with an IC50 in assay [2] of 16 nM.
`O=C(c1ccncc1)c1ccc(Nc2ccc(F)cc2)nc1` [Compound A75]: in assay [1], the “CDK19 Selectivity” value is 3.9 and the half-maximal inhibitory concentration (IC50) came out at 296 nM. Further, the IC50 in assay [2] stood at 1160 nM.
The corresponding values for `CC(C)Cc1ccc(Nc2ccc(-c3ccccc3)cn2)cc1` [Compound A76] are 3, 1720 nM and 5100 nM.
Regarding `Cc1ccc(-c2ccc(Nc3ccc(CC(C)C)cc3)nc2)cc1` [Compound A77], in assay [1], the “CDK19 Selectivity” value is 3.5 and the IC50 amounted to 1080 nM. The same compound displayed an IC50 in assay [2] of 3760 nM.
For the compound `CC(C)Cc1ccc(Nc2ccc(C(=O)c3ccncc3)cn2)cc1` [Compound A78], in assay [1], the “CDK19 Selectivity” value is given as 2.6. The IC50 came to 5 nM in assay [1] and 13 nM in assay [2].
As to `CC(C)Cc1ccc(Nc2ccc(-c3ccc(C#N)cc3)cn2)cc1` [Compound A79], the IC50 in assay [1] and in assay [2] was 10000 nM each time.
For the compound `CC(C)Cc1ccc(Nc2ccc(-c3ccncc3)cn2)cc1` [Compound A80], in assay [1], the “CDK19 Selectivity” value turned out to be 3 and the IC50 is 3330 nM. The IC50 in assay [2] came to 10000 nM.
Consider `Fc1ccc(Nc2ccc(Oc3ccncc3)cn2)cc1` [Compound A81], for which the IC50 in assay [1] and in assay [2] was 10000 nM throughout.
On to `CC(C)Cc1ccc(Nc2ccc(-c3cccnc3)cn2)cc1` [Compound A82], for which, in assay [1], the “CDK19 Selectivity” value came to 1.5 and the half-maximal inhibitory concentration (IC50) stood at 131 nM. In assay [2], the IC50 turned out to be 193 nM.
With `CC(C)Cc1ccc(Nc2ccc(Oc3ccncc3)cn2)cc1` [Compound A83], in assay [1], the “CDK19 Selectivity” value amounted to 1 and the concentration for half-maximal inhibition (IC50) was found to be 5900 nM. In assay [2], this compound came in with an IC50 of 8300 nM.
Turning to `Fc1ccc(Nc2ccc(Nc3ccncc3)cn2)cc1` [Compound A84], the IC50 in assay [1] and in assay [2] was 10000 nM in each case.
On to `CC(C)Cc1ccc(Nc2ccc(Nc3ccncc3)cn2)cc1` [Compound A85], for which, in assay [1], the “CDK19 Selectivity” value was 3.8 and the IC50 came to 72 nM. The compound also showed an IC50 in assay [2] of 268 nM.
The corresponding values for `Cc1cccc(-c2cnc(Nc3ccc(CC(C)C)cc3)nc2)c1` [Compound A86] are 9, 1110 nM and 10000 nM.
